Paper PMC5041153, “Presumed LRP1-targeting transport peptide delivers β-secretase inhibitor to neurons in vitro with limited efficiency” (Scientific Reports, 2016)
Where a SMILES comes first, the peptide text is derived from it. [ ]: non-standard residue; d: D form. Sta = CC(C)C[C@H](N)[C@@H](O)CC(=O)O

Columns and labels:
BACE1 = target: T1, BACE1 (Homo sapiens, UniProt P56817); assay: Activity test on human neurons: Aβ38, Aβ40, Aβ42 in supernatant by ELISA; format: cell-based; details: 6 h, swAPP SH-SY5Y cells
T1 construct: SH-SY5Y cells overexpressing either Swedish-mutant APP or the isoforms APP695 or APP751 were seeded in 24-well plates; endogenous in cells; host or cells: SH-SY5Y cells overexpressing Swedish-mutant APP (also APP695 or APP751 lines)
Experimental: Figure 5 BACE1-inhibitory activity of the bioconjugates. […] The content of Aβ peptides was measured in the cells’ supernatant upon treatment and normalized setting the values of control DMSO-treated cells as 100% (Mean ± SD, n = 3–6). […] GAPDH was used as loading control. (b) Inhibitory activity of the ANG-SI bioconjugate at a range of concentrations (5–100 μM) after 6 h incubation with swAPP cells (Mean ± SD, n = 3–6). *P ≤ 0.05, **P ≤ 0.01, ***P ≤ 0.001, ****P ≤ 0.0001, one-way ANOVA followed by Dunnet test.
Supernatant from the tissue culture plates was then collected in low protein-binding tubes and analyzed by enzyme-linked immunosorbent assay with the Multi-Spot Assay System from Meso Scale Discovery (Rockville, MD) detecting human Aβ38, Aβ40 and Aβ42 peptides (#K15200E,) following manual’s instructions. The values obtained for the different conjugates varied in intensity (Aβ42 ~70,000 RU, Aβ40 ~400,000 RU and Aβ38 ~4,000 RU) and were normalized for the basal Aβ level detected in the supernatant of DMSO-treated cells, which was set as 100%.

wild type SH-SY5Y cells = format: cell-based, human; details: 5 μM, continuous exposure over 72 h, RTCA xCELLigence
Experimental: Figure S7 – Activity of the TAT-SI and TRP-SI bioconjugates on swAPP-overexpressing SH-SY5Y cells. […]
μM in FBS-supplemented medium. Mean ± SD (n=3). **P<0.01 and ****P<0.0001, one-way ANOVA followed […]
Figure S8 – Cytotoxicity of the peptides. Cell growth was monitored over 72 h using wild type SH-SY5Y cells during continuous exposure to the peptides at 5 μM using a Real-Time Cell Analysis (RTCA) xCELLigence system from Roche (Rotkreuz, Switzerland). Briefly, cells were seeded on the E-plates (10,000 cells/well) and after one day the medium was replaced by fresh medium containing the corresponding peptide and the cells were grown for 72 h. Cell growth was monitored with the RTCA system over 72 h during continuous exposure to the peptides at 5 μM. […]

purified BACE1 enzyme = target: T2, purified BACE1 enzyme (Homo sapiens, UniProt P56817); assay: Activity test against purified BACE1 enzyme (cell-free, SensoLyte 520 β-secretase assay kit); format: biochemical; details: cell-free assay of purified BACE1; mean of n = 3, except ANG-PEG-SI n = 2; CI 95% printed alongside; read-out: IC50 (concentration at which 50% of relative cleavage was achieved)
T2 construct: purchased AnaSpec (Fremont, CA)
Experimental: Figure 1 Peptidic bioconjugates and their activity on purified BACE1 enzyme. (a) Scheme of the main bioconjugates used in this study with their corresponding sequences.
A range of concentrations of the different bioconjugates were tested in a cell-free assay of purified BACE1 enzyme using the SensoLyte 520 β–secretase assay kit from AnaSpec (Fremont, CA) following manufacturer’s guidelines.

SH-SY5Y wild-type cells = details: 30 min pre-treatment, 1 h incubation, flow cytometry, n = 3; for decrease of uptake on treatment with EIPA: 60 μM EIPA, 3 μM peptide or 0.75 mg/mL 70 kDa dextran; for decrease of uptake in the presence of Dynasore: 100 μM Dynasore, serum-free medium, 3 μM peptide or 5 μg/mL transferrin
Experimental: Cell fluorescence distributions of cells treated with (a) 100 μM Dynasore or (b) 60 μM EIPA. […] Background cell fluorescence of only inhibitor-treated cells is shown (grey). Distributions shown are representative examples of three independent experiments. (c,d) Mean cell fluorescence intensity of the distributions shown in (a) or (b), respectively. The markers transferrin (Trf) and Dextran are shown for reference. (e) Frequency of cells in each of the two subpopulations (Negative or Positive) present upon treatment with ANG, as defined by the gates shown in the fluorescence distribution in (b). Numerical data are represented as mean ± SD (n = 3). *P ≤ 0.05 and **P ≤ 0.01, one-way ANOVA followed by Dunnet test.
For the pharmacological inhibition of endocytosis, we used Dynasore to inhibit clathrin-mediated endocytosis and 5-(N-Ethyl-N-isopropyl)amiloride (EIPA) to block macropinocytosis. […] To verify their inhibitory effects, we used fluorescently labeled human transferrin and 70 kDa dextran, respectively. […] Dynasore-treated cells were washed thrice with acidic wash buffer (0.2 M acetic acid and 0.2 M NaCl) and once with PBS prior to being harvested with trypsin for their analysis by flow cytometry. EIPA-treated cells were washed once with PBS, twice with acetate wash buffer (0.1 M sodium acetate and 0.05 M NaCl, pH 5.5) for 5 min each, and finally once more with PBS prior to being harvested with trypsin for their analysis by flow cytometry.

SH-SY5Y cells = assay: Cellular internalization of TAMRA-labeled peptides by flow cytometry; format: cell-based, human; details: FBS-supplemented medium, n = 3
Experimental: Figure 2 Cellular internalization of peptidic bioconjugates in SH-SY5Y neurons. Mean cell fluorescence intensity was measured by flow cytometry after continuous incubation with the fluorescent TAMRA-labeled bioconjugates in FBS-supplemented medium for increasing time periods. Values were normalized against the fluorescence background of untreated cells and expressed as fold increase. (a) Internalization kinetics of ANG-SI, ANG or SI at 1 μM (mean ± SD, n = 3). (b) Energy-dependence of the internalization of ANG-SI at 37 °C and 4 °C (mean ± SD, n = 3). ***P ≤ 0.001 and ****P ≤ 0.0001, unpaired Student’s t test. (c) Confocal images of cells incubated with ANG-SI, ANG or SI (red) for 1 h. Cells’ perimeter and nuclei have been delineated for reference. Scale bar 10 μm. […]
To study the uptake of the ANG conjugates, cells were incubated with the different fluorescently labeled peptides at 1 μM in FBS-supplemented medium for increasing periods of time, after which they were washed according to previously established protocols[50] and harvested with trypsin for their analysis by flow cytometry. The mean fluorescence values obtained from the analysis were normalized against the background fluorescence of untreated cells and were presented as fold-increase of this intensity. […]

T1 sequence (P56817 46-501): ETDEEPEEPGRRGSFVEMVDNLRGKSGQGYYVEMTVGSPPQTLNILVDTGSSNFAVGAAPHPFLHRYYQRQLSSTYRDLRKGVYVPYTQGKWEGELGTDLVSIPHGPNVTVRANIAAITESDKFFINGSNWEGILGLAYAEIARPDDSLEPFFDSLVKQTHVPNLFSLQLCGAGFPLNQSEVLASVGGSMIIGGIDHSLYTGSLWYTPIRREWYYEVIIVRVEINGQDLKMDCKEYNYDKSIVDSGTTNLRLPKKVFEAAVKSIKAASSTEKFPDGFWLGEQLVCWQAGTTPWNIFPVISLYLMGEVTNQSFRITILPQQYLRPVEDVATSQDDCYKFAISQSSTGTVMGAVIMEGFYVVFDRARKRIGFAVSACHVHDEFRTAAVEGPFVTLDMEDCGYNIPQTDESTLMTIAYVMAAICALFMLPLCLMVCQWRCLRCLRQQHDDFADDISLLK
T2 sequence (P56817 46-501): as above

C[C@@]1(c2cc(-c3cncnc3)c(F)cc2F)CCSC(N)=N1 [LY2811376, reference compound]
decrease of the levels of Aβ peptides 38, 40 and 42 in supernatant (BACE1; 5 μM, FBS-supplemented medium, normalized to DMSO-treated cells = 100%, n = 3–6): > 90%

CC[C@H](C)[C@H](NC(=O)[C@H](CCCCN)NC(=O)[C@H](CCCCN)NC(=O)[C@H](C)NC(=O)[C@H](CC(C)C)NC(=O)[C@H](C)NC(=O)[C@H](C)NC(=O)[C@H](CC(C)C)NC(=O)[C@H](C)NC(=O)[C@H](CCCCN)NC(=O)[C@H](CC(C)C)NC(=O)[C@H](CC(N)=O)NC(=O)[C@@H](NC(=O)[C@H](CCCCN)NC(=O)CNC(=O)[C@H](CC(C)C)NC(=O)[C@H](CC(C)C)NC(=O)[C@H](Cc1ccc(O)cc1)NC(=O)CNC(=O)[C@H](C)NC(=O)[C@H](CO)NC(=O)[C@H](CC(N)=O)NC(=O)[C@H](CC(C)C)NC(=O)[C@@H](NC(=O)[C@H](Cc1c[nH]c2ccccc12)NC(=O)CNC(=O)[C@H](Cc1ccccc1)NC(=O)[C@H](CCC(=O)O)NC(=O)[C@H](C)NC(=O)[C@@H](NC(=O)C[C@H](O)[C@H](CC(C)C)NC(=O)[C@H](CC(N)=O)NC(=O)[C@@H](NC(=O)[C@@H](N)CCC(=O)O)C(C)C)C(C)C)[C@@H](C)O)[C@@H](C)CC)C(=O)N[C@@H](CC(C)C)C(=O)O [TRP-SI] (H-EVN[Sta]VAEFGWTLNSAGYLLGKINLKALAALAKKIL-OH)
cytotoxicity (cell growth) (wild type SH-SY5Y cells): cytotoxic effect

EVN-statine-VAEF-PEG-TFFYGGSRGKRNNFKTEEY [ANG-PEG-SI, ANG and SI joined by an inert poly(ethylene glycol) linker]
IC50 (purified BACE1 enzyme): 0.0871 µM | effect on Aβ peptide levels (cellular activity) (BACE1; 5 μM, FBS-supplemented medium, normalized to DMSO-treated cells): did not show cellular activity

EVN-statine-VAEFTFFYGGSRGKRNNFKTEEY (N-terminal EVN-statine) [ANG-SI, SI coupled to the transport peptide ANG]
decrease of uptake on treatment with EIPA (SH-SY5Y wild-type cells): 50% | decrease of uptake in the presence of Dynasore (SH-SY5Y wild-type cells): 20% | internalization into cells (mean cell fluorescence intensity) (SH-SY5Y cells; TAMRA-labeled peptide, 1 μM, up to 5 h continuous incubation, 37 °C): taken up by cells | internalization at 4 °C instead of 37 °C (energy dependence) (SH-SY5Y cells; TAMRA-labeled, 1 h pre-incubation at 4 °C): significantly decreased | decrease in the enzymatic activity of BACE1 (BACE1; concentrations five times higher than 5 μM, n = 3–6): ~ 25% | decrease in the enzymatic activity of BACE1 (BACE1; concentrations twenty times higher than 5 μM, n = 3–6): ~ 60%

dextran [reference compound]
decrease of uptake on treatment with EIPA (SH-SY5Y wild-type cells): 50%

transferrin: fluorescently labeled human transferrin, clathrin-mediated endocytosis marker [reference compound]
decrease of uptake in the presence of Dynasore (SH-SY5Y wild-type cells): ~ 35%
